PubChem BioAssay (NCI)
Values joined by “and” are separate entries in the source; they are usually repeats but may differ in a detail not shown here. Identical values can stand only once.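 Step 1: Grow cells in 96-well plates. Step 2: Expose to compound for 48 hours at 5 concentrations. Step 3: Interpolate endpoints linearly; if unreached, use highest concentration. Abbreviation: GI50, concentration required for 50% inhibition of growth. TGI: concentration producing complete growth inhibition.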

Legend:
Experiment in all cases: inhibition of tumour cell growth, NCI panel, 48 h
[1] = system: MDA-MB-435
[2] = system: ACHN renal
[3] = system: HOP-62 NSCLC
[4] = system: OVCAR-5 ovarian
[5] = system: T-47D breast
[6] = system: EKVX NSCLC
[7] = system: HCT-116 colon
[8] = system: MOLT-4 leukemia
[9] = system: PC-3 prostate
[10] = system: CCRF-CEM leukemia

CO/N=C(/C)c1cccc(Nc2cc(-c3ccccc3)nc3ccc(OC)cc23)c1 showed a GI50 [1] of 1.99 µM, a TGI [1] of 6.12 µM and a GI50 [2] of 14.1 µM. It also gave a TGI [2] of 31.5 µM, a GI50 [3] of 2.37 µM and a TGI [3] of 6.17 µM. The GI50 [4] was 15.3 µM, the TGI [4] was 37.3 µM and the GI50 [5] was 71 µM. The TGI [5] was > 100 µM, the GI50 [6] was 10.8 µM and the TGI [6] was 30.3 µM. The GI50 [7] was 4.25 µM, the TGI [7] was 18.4 µM and the GI50 [8] was 3.05 µM. The TGI [8] was > 100 µM, the GI50 [9] was 4.68 µM and the TGI [9] was 21.6 µM.
In the case of CCN(CC)CCNC(=O)c1ccc(C)c(OCc2ccccc2)c1[N+](=O)[O-], the TGI [2] is reported as > 89.6 µM, the TGI [3] is reported as > 75.4 µM and the TGI [4] is reported as 81.3 µM. For the same compound, the TGI [5] was 58 µM, the TGI [6] was > 100 µM and the TGI [7] was 47.8 µM. The TGI [10] was 81.4 µM, the TGI [8] was 77.8 µM and the TGI [9] was > 100 µM.
Nc1nc(N)c2cc(CNc3ccc(C(=O)NC(CC(=O)O)C(=O)O)c(Cl)c3)ccc2n1 (configuration not stated) was tested, and the GI50 [1] was 0.05 µM, the TGI [1] was > 500 µM and the GI50 [2] was 0.05 µM. The TGI [2] was > 500 µM, the GI50 [3] was 0.308 µM and 0.05 µM and the TGI [3] was > 500 µM. The GI50 [4] was 0.05 µM, the TGI [4] was > 500 µM and the TGI [5] was > 500 µM. For the same compound, the GI50 [6] was > 500 µM, the TGI [6] was > 500 µM and the GI50 [7] was 0.05 µM. For the same compound, the TGI [7] was > 500 µM, the GI50 [10] was 0.05 µM and the TGI [10] was > 500 µM. The GI50 [8] was 0.05 µM, the TGI [8] was > 31.6 µM and 316 µM and the GI50 [9] was < 0.01 µM. For the same compound, the TGI [9] was > 500 µM.
With CN1CCN(c2ccc(Nc3ncc4cc(C#N)c(=O)n(C5CCCC5)c4n3)cc2)CC1 the GI50 [1] was 3.1 µM, the TGI [1] was > 100 µM and the GI50 [2] was 0.309 µM. The TGI [2] was 13.5 µM, the GI50 [3] was 2.19 µM and the TGI [3] was > 25.5 µM. For the same compound, the GI50 [4] was 0.942 µM, the TGI [4] was > 100 µM and the GI50 [5] was 2.32 µM. The TGI [5] was > 100 µM, the GI50 [6] was 2.93 µM and the TGI [6] was > 100 µM. The GI50 [7] was 0.587 µM, the TGI [7] was > 100 µM and the GI50 [10] was 0.597 µM. The TGI [10] was > 20.9 µM, the GI50 [8] was 0.3 µM and the TGI [8] was 3.17 µM. For the same compound, the GI50 [9] was 0.611 µM and the TGI [9] was > 23.2 µM.
For NC(=S)N/N=C/c1cc(-c2cccc(N)c2)ccn1, the GI50 [1] was 3.2 µM, the TGI [1] was > 100 µM and the GI50 [2] was 1.06 µM. The TGI [2] was 16.1 µM, the GI50 [3] was 2.44 µM and the TGI [3] was > 36.9 µM. For the same compound, the GI50 [4] was 3.96 µM, the TGI [4] was > 100 µM and the GI50 [5] was 1.34 µM. The TGI [5] was > 100 µM, the GI50 [6] was 2.6 µM and the TGI [6] was > 100 µM. For the same compound, the GI50 [7] was 1.99 µM, the TGI [7] was 27.3 µM and the GI50 [10] was 0.674 µM. For the same compound, the TGI [10] was > 36.1 µM, the GI50 [8] was 0.588 µM and the TGI [8] was > 100 µM. The GI50 [9] was 1.07 µM and the TGI [9] was > 100 µM.
Cc1ncc([N+](=O)[O-])n1CCNS(=O)(=O)CCCn1ncnc1[N+](=O)[O-] was tested, and the TGI [1] was > 100 µM, the TGI [2] was > 100 µM and the TGI [3] was > 100 µM. The TGI [4] was > 100 µM, the TGI [5] was > 100 µM and the TGI [6] was > 100 µM. The TGI [7] was > 100 µM, the TGI [10] was > 100 µM and the TGI [8] was > 100 µM. The TGI [9] was > 100 µM.
O=C(OCC(OC(=O)c1ccccc1)C(OC(=O)c1ccccc1)C(OC(=O)c1ccccc1)c1cnn(-c2ccccc2)n1)c1ccccc1 (configuration not stated) was tested, and the TGI [1] was > 100 µM, the TGI [2] was > 100 µM and the TGI [3] was > 100 µM. For the same compound, the TGI [4] was > 100 µM, the TGI [5] was > 100 µM and the TGI [6] was > 100 µM. The TGI [7] was > 100 µM, the TGI [10] was > 100 µM and the TGI [8] was > 100 µM.
With O=C(O)C12CC3(C(=O)O)CC(C(=O)O)(CC(C(=O)O)(C1)C3=O)C2=O the TGI [1] was > 100 µM, the TGI [2] was > 100 µM and the TGI [3] was > 100 µM. For the same compound, the TGI [4] was > 100 µM, the TGI [5] was > 100 µM and the TGI [6] was > 100 µM. For the same compound, the TGI [7] was > 100 µM, the TGI [10] was > 100 µM and the TGI [8] was > 100 µM. For the same compound, the TGI [9] was > 100 µM.
In the case of O=C(NCc1ccc(S(=O)(=O)c2cc(F)cc(F)c2)cc1)c1ccc2nccn2c1, the GI50 [1] is reported as 0.0508 µM, the TGI [1] is reported as > 100 µM and the GI50 [2] is reported as 21.1 µM. The TGI [2] was > 100 µM, the GI50 [3] was 23 µM and the TGI [3] was 74 µM. For the same compound, the GI50 [4] was 0.331 µM, the TGI [4] was > 100 µM and the GI50 [5] was 11.7 µM. The TGI [5] was > 100 µM, the GI50 [6] was 23.3 µM and the TGI [6] was > 100 µM. The GI50 [7] was < 0.01 µM, the TGI [7] was > 100 µM and the TGI [10] was > 100 µM. For the same compound, the GI50 [8] was > 27.2 µM, the TGI [8] was > 100 µM and the TGI [9] was > 100 µM.
For S=C1CC(c2ccccc2)Sc2ccc(Cl)cc2N1 (configuration not stated), the TGI [1] was > 100 µM, the TGI [2] was > 100 µM and the TGI [3] was > 100 µM. The TGI [4] was > 100 µM, the TGI [5] was > 100 µM and the TGI [6] was > 100 µM. The TGI [7] was > 100 µM, the TGI [10] was > 100 µM and the TGI [8] was > 100 µM. The TGI [9] was > 100 µM.
In the case of Cn1cc(-c2ccc(-c3cncc(Cl)c3N3CCC4(CCNC4=O)CC3)cc2)cn1, the GI50 [1] is reported as 38.7 µM, the TGI [1] is reported as > 100 µM and the GI50 [2] is reported as 23 µM. The TGI [2] was > 100 µM, the GI50 [3] was 39.6 µM and the TGI [3] was > 100 µM. The GI50 [4] was > 100 µM, the TGI [4] was > 100 µM and the GI50 [5] was 25.9 µM. For the same compound, the TGI [5] was > 100 µM, the GI50 [6] was 51.9 µM and the TGI [6] was > 100 µM. The GI50 [7] was 24.3 µM, the TGI [7] was > 100 µM and the GI50 [10] was 44.5 µM. For the same compound, the TGI [10] was > 100 µM, the GI50 [8] was 15.5 µM and the TGI [8] was > 100 µM. For the same compound, the GI50 [9] was 47.3 µM and the TGI [9] was > 100 µM.
COc1ccc2c(c1)C(C)Cc1c(ncnc1-n1cnc3cc(C)ccc31)N2C (configuration not stated) gave a GI50 [2] of 0.0688 µM, a TGI [2] of 15.3 µM and a GI50 [3] of 0.0707 µM. It also gave a TGI [3] of 18.2 µM, a GI50 [4] of 0.294 µM and a TGI [4] of 26.8 µM. For the same compound, the GI50 [6] was 0.25 µM, the TGI [6] was 23.2 µM and the GI50 [7] was 0.0736 µM. For the same compound, the TGI [7] was 14.9 µM, the GI50 [10] was 0.0324 µM and the TGI [10] was 14.5 µM. The GI50 [8] was 0.247 µM, the TGI [8] was 12.9 µM and the GI50 [9] was 0.0407 µM. It also gave a TGI [9] of 21 µM.
In the case of Cc1ccc(S(=O)(=O)NC(=O)NC2=NC(C)(C)N(c3ccc(Cl)c(Cl)c3)C(N)=N2)cc1, the TGI [2] is reported as > 100 µM, the TGI [3] is reported as > 100 µM and the TGI [4] is reported as > 100 µM. The TGI [5] was > 100 µM, the TGI [6] was > 100 µM and the TGI [7] was > 100 µM. The TGI [10] was > 100 µM, the TGI [8] was > 100 µM and the TGI [9] was > 100 µM.
Work on C=C1CC[C@@H](C(C)C)C[C@@H]2[C@H]([C@H](O)C[C@]2(C)O)[C@@]2(C)CC[C@@H]1O2 yielded a GI50 [1] of 16.4 µM, a TGI [1] of 32.1 µM and a GI50 [2] of 16.5 µM. It also gave a TGI [2] of 30 µM, a GI50 [3] of 17.7 µM and a TGI [3] of 31.6 µM. The GI50 [4] was 13.2 µM, the TGI [4] was 26 µM and the GI50 [5] was 14.9 µM. It also gave a TGI [5] of 33.1 µM, a GI50 [6] of 28 µM and a TGI [6] of 55.9 µM. It also gave a GI50 [7] of 16.7 µM, a TGI [7] of 30.3 µM and a GI50 [8] of 22.8 µM. For the same compound, the TGI [8] was 51.2 µM.
Work on CC(C)C1=C2CCC3(C)C(CCC4C5C6OCC5(CCC6(C)C)CCC43C)C2(C)CC1 (configuration not stated) yielded a TGI [1] of 36.6 µM, a TGI [2] of 35.9 µM and a TGI [3] of 38.9 µM. The TGI [4] was > 100 µM, the TGI [5] was 63 µM and the TGI [6] was 39.2 µM. For the same compound, the TGI [7] was 34.4 µM, the TGI [10] was 31.9 µM and the TGI [8] was 34.6 µM.
With CCN(CC)c1cc2oc3cc(N)cc(=N)c-3nc2cc1C the GI50 [2] was 1.69 µM, the TGI [2] was > 100 µM and the GI50 [3] was 2.91 µM. The TGI [3] was 9.26 µM, the GI50 [4] was 2.82 µM and the TGI [4] was 7.4 µM. The GI50 [5] was 5.04 µM, the TGI [5] was 43.8 µM and the GI50 [6] was 4.02 µM. The TGI [6] was 54.6 µM, the GI50 [7] was 1.83 µM and the TGI [7] was 5.69 µM. The GI50 [9] was 1.73 µM and the TGI [9] was > 100 µM.
